Tests used:
[1] = Phase 2 study in PNH subjects: hemoglobin levels; type: in vivo, human; settings: Compound 1 100 mg TID + IV eculizumab
Experimental: (§1) The starting dose of compound 1 is based upon group assignment. The Group 1 dose is 100mg three times daily (TID). The Group 2 dose is 150 mg TID. The Group 3 dose is 200 mg TID. The Group 4 dose will receive the optimal dose determined from Groups 1-3.
(§2) All doses are taken approximately 15-30 minutes after completion of a meal or snack.
(§3) This will be followed by a long-term extension phase.
(§4) 2 subjects in the first dose level of 100 mg TID have been completed and data collected through 4 weeks. Data collected include lactate dehydrogenase (LDH) levels, hemoglobin levels, reticulocytes, PNH red blood cells (Type III) percentage, C3 Fragment Deposition percentage, and bilirubin levels and their changes from baseline.
Free hemoglobin is a pharmacodynamic marker that is measured from blood drawn on Day 1, Week 1, Week 2, and Week 4 (FIGS. 14A & 14B and Table 16). Low levels of hemoglobin is a sign of hemolytic anemia.

[2] = system: PNH Type III red blood cells; test: Phase 2 study in PNH subjects: PNH red blood cell (Type III) percentage; type: in vivo, human; settings: Compound 1 100 mg TID + IV eculizumab
Experimental: as §1, §2, §3, §4
Measuring the percentage of PNH Type III red blood cells is a pharmacodynamic marker that is measured by flow cytometry, which provides information on cell size, shape, and percentage of a type of cell. This assay determines whether CD55 and CD59 are missing from the surface of red blood cells. These proteins help protect normal cells from hemolysis. PNH Type III cells are extremely sensitive to the complement system and hemolysis. PNH Type III cell percentage is measured from plasma drawn on Day 1, Week 2, and Week 4 (FIGS. 16A & 16B and Table 18).

[3] = system: C3 fragment deposition on artificial PNH cells; test: C3 fragment deposition on artificial PNH cells (flow cytometry); type: cell-based; settings: 32% acidified C5-depleted normal human serum; read-out: IC50, inhibition of C3 fragment deposition on artificial PNH cells
Experimental: C5-depleted normal human serum (C5-Dpl NHS), gelatin veronal buffer (GVB) without Ca^++ and Mg^++ (GVB^0), 100 mM MgCl2+100 mM EGTA (MgEGTA) were obtained from Complement Technology Inc. (Tyler, TX). GVB^0·MgEGTA was prepared by mixing GVB^0 and 100 mM MgEGTA in a 9:1 ratio. FITC-conjugated anti-C3c antibody (cat #ab4212) and Alexa Fluor® 647-conjugated anti human CD59 antibody (cat #:ab187769) were purchased from Abcam (Cambridge, MA). […] Ferrone, and F. Mercuriali, The Action of Two Sulfhydryl Compounds on Normal Human Red Cells. Relationship to Red Cells of Paroxysmal Nocturnal Hemoglobinuria. Blood, 1965. 25: p. 502-10). After AET treatment, artificial PNH erythrocytes were centrifuged, supernatant was aspirated and cells were thoroughly washed with phosphate buffered saline (PBS) 3 times followed by washing with GVB^0 buffer ([…]) for additional 3 times. […] C3 fragment deposition on the surface of the erythrocytes was assessed by flow cytometry with BD Accuri C6 cytometer (BD Biosciences, San Jose, CA). […] IC50 values from each experiment were determined by curve-fitting of experimental data (the % C3 fragment-positive cells at increasing concentrations of inhibitor) to the four-parameter sigmoidal dose-response equation using non-linear regression analysis (Prism Software, GraphPad, La Jolla, CA).

C3 fragment deposition = test: Phase 2 study in PNH subjects: C3 fragment deposition percentage; type: in vivo, human
Experimental: C3 fragment deposition is measured using blood by flow cytometry that would be known to those of skill in the art. In a typical protocol, a blood sample is collected from eculizumab-treated PNH patients or healthy individuals. Erythrocytes are harvested by centrifugation, washed with PBS several times until the supernatant remains clear. C3 fragment deposition on the PNH erythrocytes membrane is measured by flow cytometry using FITC-conjugated anti-C3c, PE conjugated anti-CD47 and APC-conjugated anti-CD59 following dilution of reaction mixtures in FC buffer. Intact and fragmented PNH erythrocytes are identified by anti-CD47 (positive) and anti-CD59 (negative) staining C3 fragment deposition is assessed by anti-C3c staining.
as §1, §2, §3, §4
Measurement of C3 fragment deposition percentage is a pharmacodynamic marker that is measured by flow cytometry of subject plasma samples collected on Day 1, Week 2, and Week 4 (FIGS. 17A & 17B and Table 19). Uncontrolled C3 activation due to the absence of CD55 on red blood cells may result in opsonization of red blood cells, leading to clinically meaningful extravascular hemolysis.

[4] = subject 003-001, DAY 1 (baseline)
[5] = subject 003-002, DAY 1 (baseline)

SMILES: CC(=O)c1nn(CC(=O)N2C[C@H](F)C[C@H]2C(=O)Nc2cccc(Br)n2)c2ccc(-c3cnc(C)nc3)cc12 [Compound 1, (2S,4R)-1-(2-(3-acetyl-5-(2-methylpyrimidin-5-yl)-1H-indazol-1-yl)acetyl)-N-(6-bromopyridin-2-yl)-4-fluoropyrrolidine-2-carboxamide]
- HEMOGLOBIN Observed [1, 4]: 5.0 g/dL
- HEMOGLOBIN CFB (change from baseline) ([1]; subject 003-001, DAY 1): 0.0 g/dL
- HEMOGLOBIN CFB (change from baseline) ([1]; subject 003-001, WEEK 1): 1.1 g/dL
- HEMOGLOBIN Observed ([1]; subject 003-001, WEEK 1): 6.1 g/dL
- HEMOGLOBIN CFB (change from baseline) ([1]; subject 003-001, WEEK 2): 2.0 g/dL
- HEMOGLOBIN Observed ([1]; subject 003-001, WEEK 2): 7.0 g/dL
- HEMOGLOBIN CFB (change from baseline) ([1]; subject 003-001, WEEK 4): 2.6 g/dL
- HEMOGLOBIN Observed ([1]; subject 003-001, WEEK 4): 7.6 g/dL
- HEMOGLOBIN Observed [1, 5]: 9.8 g/dL
- HEMOGLOBIN CFB (change from baseline) ([1]; subject 003-002, DAY 1): 0.0 g/dL
- HEMOGLOBIN CFB (change from baseline) ([1]; subject 003-002, WEEK 1): 1.4 g/dL
- HEMOGLOBIN Observed ([1]; subject 003-002, WEEK 1): 11.2 g/dL
- HEMOGLOBIN CFB (change from baseline) ([1]; subject 003-002, WEEK 2): 1.8 g/dL
- HEMOGLOBIN Observed ([1]; subject 003-002, WEEK 2): 11.6 g/dL
- HEMOGLOBIN CFB (change from baseline) ([1]; subject 003-002, WEEK 4): 2.9 g/dL
- HEMOGLOBIN Observed ([1]; subject 003-002, WEEK 4): 12.7 g/dL
- PNH RBC (TYPE III) Observed [2, 4]: 41%
- PNH RBC (TYPE III) CFB (change from baseline) ([2]; subject 003-001, DAY 1): 0%
- PNH RBC (TYPE III) CFB (change from baseline) ([2]; subject 003-001, WEEK 2): 21%
- PNH RBC (TYPE III) Observed ([2]; subject 003-001, WEEK 2): 62%
- PNH RBC (TYPE III) CFB (change from baseline) ([2]; subject 003-001, WEEK 4): 29%
- PNH RBC (TYPE III) Observed ([2]; subject 003-001, WEEK 4): 70%
- PNH RBC (TYPE III) Observed [2, 5]: 50%
- PNH RBC (TYPE III) CFB (change from baseline) ([2]; subject 003-002, DAY 1): 0%
- PNH RBC (TYPE III) CFB (change from baseline) ([2]; subject 003-002, WEEK 2): 10%
- PNH RBC (TYPE III) Observed ([2]; subject 003-002, WEEK 2): 60%
- PNH RBC (TYPE III) CFB (change from baseline) ([2]; subject 003-002, WEEK 4): 18%
- PNH RBC (TYPE III) Observed ([2]; subject 003-002, WEEK 4): 68%
- IC50 [3]: 0.027 µM
- C3 FRAGMENT DEPOSITION (%) CFB (change from baseline) (C3 fragment deposition; PNH subject 003-001, DAY 1): 0.00%
- C3 FRAGMENT DEPOSITION (%) Observed (C3 fragment deposition; PNH subject 003-001, DAY 1 (baseline), flow cytometry): 2.60%
- C3 FRAGMENT DEPOSITION (%) CFB (change from baseline) (C3 fragment deposition; PNH subject 003-001, WEEK 2): −0.50%
- C3 FRAGMENT DEPOSITION (%) Observed (C3 fragment deposition; PNH subject 003-001, WEEK 2, flow cytometry): 2.10%
- C3 FRAGMENT DEPOSITION (%) CFB (change from baseline) (C3 fragment deposition; PNH subject 003-001, WEEK 4): −0.50%
- C3 FRAGMENT DEPOSITION (%) Observed (C3 fragment deposition; PNH subject 003-001, WEEK 4, flow cytometry): 2.10%
- C3 FRAGMENT DEPOSITION (%) CFB (change from baseline) (C3 fragment deposition; PNH subject 003-002, DAY 1): 0.00%
- C3 FRAGMENT DEPOSITION (%) Observed (C3 fragment deposition; PNH subject 003-002, DAY 1 (baseline), flow cytometry): 4.20%
- C3 FRAGMENT DEPOSITION (%) CFB (change from baseline) (C3 fragment deposition; PNH subject 003-002, WEEK 2): −3.10%
- C3 FRAGMENT DEPOSITION (%) Observed (C3 fragment deposition; PNH subject 003-002, WEEK 2, flow cytometry): 1.10%
- C3 FRAGMENT DEPOSITION (%) CFB (change from baseline) (C3 fragment deposition; PNH subject 003-002, WEEK 4): −3.10%
- C3 FRAGMENT DEPOSITION (%) Observed (C3 fragment deposition; PNH subject 003-002, WEEK 4, flow cytometry): 1.10%
